According to patent publication US20100015128A1, “GRP78 as a Predictor of Responsiveness to Therapeutic Agents” (UNIVERSITY OF SOUTHERN CALIFORNIA, priority 2006, published 2010):
Each block holds one molecule with its values, some of them ahead of it. d = 2'-deoxy (DNA); r = 2'-OH (RNA)

Key:
BIK [1] = experiment: BIK protein induction under stress conditions (Western blot); type: cell-based, human
From the text: (§1) Cell lines and culture conditions. The estrogen-dependent cell line MCF-7/BUS was provided by A. M. Soto (Tufts University, Medford, Mass.) and has been described (Soto et al., Environ. Health Perspect. 103:113-22 (1995)). The human embryonic kidney 293T cells and MCF-7/BUS cells were maintained in DMEM supplemented with 10% fetal bovine serum. Estrogen starvation of MCF-7/BUS cells was done as described (Hur et al., PNAS 101:2351-6 (2004)). Briefly, the cells were washed thrice with phenol red-free DMEM and incubated in washing medium at 37° C. for 60 minutes. The MCF-7/BUS cells were then cultured in phenol red-free DMEM supplemented with 5% charcoal/dextran-stripped fetal bovine serum for 24 to 72 hours as indicated. For etoposide treatment, the cells were incubated with 50 μmol/L etoposide for 6 hours and cultured for another 24 hours before harvest.
(§2) Western blots and quantitation. The Western blots were done as described (Lee, Methods 35:373-81 (2005)). The primary antibodies were goat anti-BIK (N-19, Santa Cruz Biotechnology, Santa Cruz, Calif.), rat anti-Grp78 (76-E6, Santa Cruz Biotechnology), rat anti-GRP94, rabbit anti-calnexin, rabbit anti-calreticulin (Stressgen, Ann Arbor, Mich.), mouse anti-Flag M2, mouse anti-poly(ADP-ribose) polymerase (PARP; F-2, Santa Cruz Biotechnology, Santa Cruz, Calif.), and mouse anti-h-actin (Sigma-Aldrich, St. Louis, Mo.). Anti-h-actin was diluted at 1:2,000; anti-BIK at 1:500; and other antibodies at 1:1,000. Respective horseradish peroxidase-conjugated secondary antibodies (Santa Cruz Biotechnology, Santa Cruz, Calif.) at 1:1,000 dilution were used. The Western blots were quantitated by Fluor-S® MultiImager (Bio-Rad, Hercules, Calif.) according to the manufacturer's instructions. All quantitations were normalized against h-actin.

Flag-tagged BIK-b5TM = Flag-tagged BIK-b5TM (UniProt Q13323); experiment: cell-based or functional assay
endogenous BIK (human) = endogenous BIK (human) (UniProt Q13323); experiment: cell-based or functional assay
PARP = PARP cleavage by Western blot in estrogen-starved cells; type: cell-based, human; settings: MCF-7/BUS cells, estrogen starvation; for PARP cleavage: vs control siRNA
Description: In FIG. 8A, cell lysates from MCF-7/BUS cells transfected with siGrp78 oligomers or control siRNA (siCtrl) for 24 hours and subsequently cultured in regular or estrogen-free medium (ES) for 24 hours were subjected to SDS-PAGE and Western blotting to probe for levels of GRP78, GRP94 and β-actin. In FIG. 8B, MCF-7/BUS cells were cultured either in regular or in estrogen-free (ES) medium for 24 hours after transfection of siGrp78 or siCtrl as indicated. The percent of apoptotic cells was assessed by mitochondrial membrane potential staining. The standard errors are indicated. In FIG. 8C, MCF-7/BUS cells were transfected with control siRNA, siGrp78, or siBik, alone or in combination as indicated for 24 hours and then cultured in ES medium for 24 hours. The total amount of siRNA in each condition was adjusted to be the same by addition of siCtrl. Cell lysates were collected and subjected to SDS-PAGE and probed for levels of GRP78, BIK and β-actin by Western blotting. In FIG. 8D, cell lysates from FIG. 8C were subjected to SDS-PAGE and Western blotted with anti-PARP antibody. The Western signal of full-length PARP and apoptosis-signature fragment were quantitated by Fluor-S™ MultiImager (Bio-Rad, Hercules, Calif.). The relative PARP cleavages are shown with the PARP cleavage in cells transfected with control siRNA set as 1. Columns in FIGS. 8B and 8D represent the mean from three or two experiments, respectively. Standard error: * p<0.05, ** p<0.01.
Cell lines and culture conditions. The estrogen-dependent cell line MCF-7/BUS was provided by A. M. Soto (Tufts University, Medford, Mass.) and has been described (Soto et al., Environ. Health Perspect. 103:113-22 (1995)). The human embryonic kidney 293T cells and MCF-7/BUS cells were maintained in DMEM supplemented with 10% fetal bovine serum. […]
Western blots and quantitation. […] The Western blots were quantitated by Fluor-S® MultiImager (Bio-Rad, Hercules, Calif.) according to the manufacturer's instructions. All quantitations were normalized against h-actin.

BIK [2] = experiment: siRNA knockdown in MCF-7/BUS cells, Western blot for BIK; type: cell-based, human; settings: estrogen starvation, vs control siRNA
From the text: as §2
(§3) Small interfering RNA. The siRNA against Grp78 is 5′-gagcgcauugauacuagadTdT-3′ (SEQ ID NO:1) as described (Tsutsumi et al., Oncogene 25:1018-29 (2006)). The siRNA against Bik is 5′-[…]-3′ (SEQ ID NO:2) (Hur et al., PNAS 101:2351-6 (2004)). The control siRNA is Silencer Negative Control #3 siRNA (Ambion, Foster City, Calif.) composed of a 19-bp scrambled sequence without significant homology to any known gene sequences from mouse, rat, or human. […]

MCF-7/BUS cells = experiment: Mitochondrial membrane potential staining (apoptosis); type: cell-based, human
From the text: as §1
For construction of the adenovirus expression vectors, either GFP or a His-tagged full-length hamster Grp78 cDNA was subcloned into an adenoviral vector and its expression was driven by the cytomegalovirus promoter. […] For mitochondrial membrane potential staining, because GFP interferes with the green fluorescence of this assay, the adenovirus empty vector was used as the negative control. […]
Cell death and apoptotic assays. […] The cell cultures were then washed with PBS and examined under a fluorescence microscope. […]

GRP78 = experiment: siRNA knockdown in MCF-7/BUS cells, Western blot for Grp78; type: cell-based, human; settings: transient transfection, vs control siRNA
From the text: as §2, §3

GRP94 [3] = experiment: siRNA knockdown in MCF-7/BUS cells, Western blot for GRP94; type: cell-based, human; settings: transient transfection
From the text: as §2, §3

GRP94 [4] = target: GRP94 (human, UniProt P14625 22-803); experiment: co-immunoprecipitation with anti-BIK from 293T lysate, Western blot
Sequence of GRP94 (human, UniProt P14625 22-803) (P14625 22-803 limits assumed): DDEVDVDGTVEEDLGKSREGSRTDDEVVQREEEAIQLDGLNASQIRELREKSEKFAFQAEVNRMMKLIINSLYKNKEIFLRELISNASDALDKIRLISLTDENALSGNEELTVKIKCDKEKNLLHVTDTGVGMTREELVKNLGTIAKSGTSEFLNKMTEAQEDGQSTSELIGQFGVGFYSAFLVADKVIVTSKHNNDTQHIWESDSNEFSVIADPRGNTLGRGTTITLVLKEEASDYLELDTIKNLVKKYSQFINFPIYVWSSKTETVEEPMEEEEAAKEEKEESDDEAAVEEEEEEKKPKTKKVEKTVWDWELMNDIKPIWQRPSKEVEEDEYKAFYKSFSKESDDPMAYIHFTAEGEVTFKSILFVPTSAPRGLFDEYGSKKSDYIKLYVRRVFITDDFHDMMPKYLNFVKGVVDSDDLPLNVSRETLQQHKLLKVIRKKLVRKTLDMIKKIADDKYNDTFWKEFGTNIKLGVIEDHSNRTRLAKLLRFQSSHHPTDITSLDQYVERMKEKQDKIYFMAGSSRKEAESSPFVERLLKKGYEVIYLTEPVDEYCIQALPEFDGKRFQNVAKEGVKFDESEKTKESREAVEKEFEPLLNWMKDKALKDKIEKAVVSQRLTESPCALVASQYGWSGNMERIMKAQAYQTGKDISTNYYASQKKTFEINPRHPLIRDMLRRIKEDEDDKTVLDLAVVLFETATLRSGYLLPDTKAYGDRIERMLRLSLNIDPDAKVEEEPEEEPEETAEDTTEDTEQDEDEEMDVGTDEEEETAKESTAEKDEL
Description: (§4) FIGS. 5A to 5D show selective association of endogenous BIK with GRP78. In FIG. 5A, 293T cells were either non-treated or treated with 50 μM etoposide (Etop) for 6 hours and were harvested 24 hours later. MCF-7/BUS cells were cultured either in regular DMEM or in estrogen-free DMEM for 48 hours. Western blots of total protein lysates from these cells were performed with antibodies against BIK and β-actin. In FIG. 5B, cell lysates prepared from control and Etop-treated 293T cells were immunoprecipitated with anti-BIK or normal IgG The immunoprecipitates were applied in parallel with input lysates to SDS-PAGE and Western blotted with antibodies against GRP78, GRP94, calnexin, calreticulin and BIK. […] In FIG. 5D, lysates of 293T cells were incubated with GST-GRP78, GST-BIK, or GST linked beads. The bound proteins were resolved by SDS-PAGE and probed for GRP78 or BIK by Western blotting.
(§5) Communoprecipitation assays. The coimmunoprecipitation assays were done as described (Reddy et al., J. Biol. Chem. 278:20915-24 (2003)). Briefly, 500 μg of total protein extract from each sample were pretreated with protein G-Sepharose beads (Upstate, Chicago, Ill.), followed by incubation with 5 Ag of goat anti-BIK antibody (N-19, Santa Cruz Biotechnology, Santa Cruz, Calif.) or mouse anti-Flag M2 antibody (Sigma-Aldrich, St. Louis, Mo.). For negative controls, the respective goat or mouse immunoglobulin G (IgG; Santa Cruz Biotechnology, Santa Cruz, Calif.) was used.

calreticulin = target: T1, calreticulin (human, UniProt P27797 18-417); experiment: as above
T1 sequence (looked up): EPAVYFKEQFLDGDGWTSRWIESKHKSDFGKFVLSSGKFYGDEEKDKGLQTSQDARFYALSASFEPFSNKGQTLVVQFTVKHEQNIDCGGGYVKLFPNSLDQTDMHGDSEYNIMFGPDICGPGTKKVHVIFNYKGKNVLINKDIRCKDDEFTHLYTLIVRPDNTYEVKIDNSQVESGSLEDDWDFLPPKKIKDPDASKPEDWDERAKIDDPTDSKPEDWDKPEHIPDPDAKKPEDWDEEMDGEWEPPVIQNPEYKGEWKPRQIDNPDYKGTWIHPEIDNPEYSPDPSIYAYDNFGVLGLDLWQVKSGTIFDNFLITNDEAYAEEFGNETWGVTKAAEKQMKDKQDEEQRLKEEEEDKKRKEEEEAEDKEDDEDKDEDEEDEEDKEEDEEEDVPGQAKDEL
Description: as §4, §5

calnexin = target: T2, calnexin (human, UniProt P27824 21-592); experiment: as above
T2 sequence (looked up): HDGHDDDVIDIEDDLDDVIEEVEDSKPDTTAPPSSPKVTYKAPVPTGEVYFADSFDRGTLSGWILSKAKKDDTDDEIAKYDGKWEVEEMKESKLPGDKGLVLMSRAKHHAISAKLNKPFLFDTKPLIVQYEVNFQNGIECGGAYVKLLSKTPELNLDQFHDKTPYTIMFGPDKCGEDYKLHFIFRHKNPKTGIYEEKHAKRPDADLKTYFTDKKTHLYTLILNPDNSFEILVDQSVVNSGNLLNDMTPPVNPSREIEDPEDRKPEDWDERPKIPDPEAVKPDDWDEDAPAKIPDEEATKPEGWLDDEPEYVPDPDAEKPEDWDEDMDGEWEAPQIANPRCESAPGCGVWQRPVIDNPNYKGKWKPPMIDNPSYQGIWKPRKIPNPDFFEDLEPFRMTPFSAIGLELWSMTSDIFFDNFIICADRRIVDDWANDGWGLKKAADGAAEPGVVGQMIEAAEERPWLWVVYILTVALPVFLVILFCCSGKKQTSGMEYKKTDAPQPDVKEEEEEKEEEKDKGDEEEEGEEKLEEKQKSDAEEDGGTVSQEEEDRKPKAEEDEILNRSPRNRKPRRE
Description: as §4, §5

GST protein = target: T3, GST protein (UniProt P08515 1-218 = GST); experiment: GST pull-down from 293T total cell extract, Western blot
T3 construct: Negative control in the pull-down assays; also called Glutathione S-transferase
T3 sequence (P08515 whole entry): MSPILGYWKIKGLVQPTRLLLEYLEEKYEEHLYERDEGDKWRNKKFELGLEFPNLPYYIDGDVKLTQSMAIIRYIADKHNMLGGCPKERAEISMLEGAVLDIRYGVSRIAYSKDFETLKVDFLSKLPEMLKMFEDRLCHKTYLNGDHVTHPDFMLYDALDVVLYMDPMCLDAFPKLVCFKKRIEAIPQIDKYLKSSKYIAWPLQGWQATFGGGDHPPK
Description: as §4
Glutathione S-transferase pull-down assays. Glutathione S-transferase (GST)-Grp78 and GST-BIK were constructed by subcloning full-length hamster Grp78 cDNA and human BIK into the BamH1/XhoI and BamH1/Sal1 sites of pGEX 4T1, respectively (Pharmacia Biotech, Piscataway, N.J.). Conditions for the GST pull-down assays have been described (Wu and Lee, Nucleic Acids Res. 26:4837-45 (1998)) with the following modifications. […]

Molecule: COc1cc([C@@H]2c3cc4c(cc3[C@@H](O[C@@H]3O[C@@H]5CO[C@@H](C)O[C@H]5[C@H](O)[C@H]3O)[C@H]3COC(=O)[C@H]23)OCO4)cc(OC)c1O [etoposide]
level of BIK protein (BIK [1]; 293T cells, 50 μmol/L etoposide 6 hours, harvested 24 hours later): substantially elevated

fold decrease in apoptosis (mitochondrial membrane potential staining) in transfected 293T cells (Flag-tagged BIK-b5TM): 3 fold
Molecule: His-tagged Grp78

decrease in BAX activation by estrogen starvation (FACS with BAX conformation specific antibody) in MCF-7/BUS cells (endogenous BIK (human)): 48%
Molecule: His-tagged full-length hamster Grp78 (Ad-Grp78) (from UniProt P07823 19-654)

Molecule: siRNA against Bik: siRNA 5′-aagaccccucuccagagacau-3′ (SEQ ID NO:2) (AAGACCCCUCUCCAGAGACAU; RNA, backbone not given here)
enhanced PARP cleavage mediated by knockdown of Grp78 (PARP; BIK knockdown combined with Grp78 knockdown): substantially reduced
PARP cleavage (PARP): decreased
expression of BIK protein (BIK [2]): substantially reduced

Molecule: siRNA against Grp78: siRNA 5′-gagcgcauugauacuagadTdT-3′ (SEQ ID NO:1) (guide GAGCGCAUUGAUACUAGATT; sugars from the 5' end r18 d2, backbone not given here)
PARP cleavage (PARP): increased
effect on mitochondrial membrane potential (MCF-7/BUS cells; MCF-7/BUS cells in normal culture medium): little effect
apoptosis (MCF-7/BUS cells; MCF-7/BUS cells, estrogen starvation 24 hours, vs control siRNA): marked increase
level of Grp78 protein (GRP78): substantially reduced
expression of GRP94 (GRP94 [3]): no effect

Molecule: tunicamycin
induction of BIK by ER stress inducers (BIK [1]; human cells): do not induce

binding result (GRP94 [4]): no binding
binding result (calreticulin): no binding
binding result (calnexin): no binding
binding result (GST protein): no binding
B1: endogenous BIK (other, human, UniProt Q13323 1-160, looked up)
chain: MSEVRPLSRDILMETLLYEQLLEPPTMEVLGMTDSEEDLDPMEDFDSLECMEGSDALALRLACIGDEMDVSLRAPRLAQLSEVAMHSLGLAFIYDQTEDIRDVLRSFMDGFTTLKENIMRFWRSPNPGSWVSCEQVLLALLLLLALLLPLLSGGLHLLLK
notes: Endogenous protein from total cell extract of the human cell line 293T, untreated or etoposide-treated; also called BIK protein
